Source: patent publication US9434727B2, “Substituted 4-phenylpiperidines, their preparation and use” (THE TRUSTEES OF COLUMBIA UNIVERSITY IN THE CITY OF NEW YORK, priority 2014, dated 2016)

Assays:
RBP4 = RBP4 (Homo sapiens (Human), UniProt P02753); test: Scintillation proximity (SPA) RBP4 binding assay; conditions: 10 nM 3H-Retinol, 50 nM biotinylated RBP4
Experimental: Scintillation Proximity RBP4 Binding Assay
Untagged human RBP4 purified from urine of tubular proteinuria patients was purchased from Fitzgerald Industries International. It was biotinylated using the EZ-Link Sulfo-NHS-LC-Biotinylation kit from Pierce following the manufacturer's recommendations. Binding experiments were performed in 96-well plates (OptiPlate, PerkinElmer) in a final assay volume of 100 μl per well in SPA buffer (IX PBS, pH 7.4, 1 mM EDTA, 0.1% BSA, 0.5% CHAPS). The reaction mix contained 10 nM ^3H-Retinol (48.7 Ci/mmol; PerkinElmer), 0.3 mg/well Streptavidin-PVT beads, 50 nM biotinylated RBP4 and a test compound. Nonspecific binding was determined in the presence of 20 μM of unlabeled retinol. The reaction mix was assembled in the dark under dim red light. The plates were sealed with clear tape (TopSeal-A: 96-well microplate, PerkinElmer), wrapped in the aluminum foil, and allowed to equilibrate 6 hours at room temperature followed by overnight incubation at +4° C. Radiocounts were measured using a TopCount NXT counter (Packard Instrument Company).

RBP4-TTR interaction = RBP4-TTR interaction (Homo sapiens (Human), UniProt P02753); test: TR-FRET (HTRF) assay for retinol-induced RBP4-TTR interaction; type: biochemical; conditions: in the presence of 1 μM retinol; read-out: HTRF assay for antagonists of RBP4-TTR interaction: IC50
Source text: TR-FRET assay for retinol-induced RBP4-TTR interaction Binding of a desired RBP4 antagonist displaces retinol and induces hindrance for RBP4-TTR interaction resulting in the decreased FRET signal (FIG. 7). Bacterially expressed MBP-RBP4 and untagged TTR were used in this assay. […] Following cell lysis, recombinant RBP4 was purified from the soluble fraction using the ACTA FPLC system (GE Healthcare) equipped with the 5-ml the MBP Trap HP column. Human untagged TTR was purchased from Calbiochem. Untagged TTR was labeled directly with Eu^3+ Cryptate-NHS using the HTRF Cryptate Labeling kit from CisBio following the manufacturer's recommendations. HTRF assay was performed in white low volume 384 well plates (Greiner-Bio) in a final assay volume of 16 μl per well. The reaction buffer contained 10 mM Tris-HCl pH 7.5, 1 mM DTT, 0.05% NP-40, 0.05% Prionex, 6% glycerol, and 400 mM KF. […] Titration of test compounds in this assay was conducted in the presence of 1 μM retinol. All reactions were assembled in the dark under dim red light and incubated overnight at +4° C. wrapped in aluminum foil. TR-FRET signal was measured in the SpectraMax M5e Multimode Plate Reader (Molecular Device). […] The TR-FRET signal was expressed as the ratio of fluorescence intensity: Flu665/Flu620×10,000.

Structure (SMILES)	IC50 (RBP4)	IC50 (RBP4-TTR interaction)
N#Cc1ccc2nnc(C(=O)N3CCC(c4cc(F)cc(F)c4C(F)(F)F)CC3)n2c1 [Compound 132, 3-(4-(3,5-Difluoro-2-(trifluoromethyl)phenyl)piperidine-1-carbonyl)-[1,2,4]triazolo[4,3-a]pyridine-6-carbonitrile]	6.75 nM	10.5 nM
CC(=O)N1CCc2c(C(=O)N3CCC(c4cc(F)cc(F)c4C(F)(F)F)CC3)n[nH]c2C1 [Compound 131, 1-(3-(4-(3,5-Difluoro-2-(trifluoromethyl)phenyl)piperidine-1-carbonyl)-4,5-dihydro-1H-pyrazolo[3,4-c]pyridin-6(7H)-yl)ethanone]	6.36 nM	10.9 nM
COCCN1Cc2[nH]nc(C(=O)N3CCC(c4ccc(F)c(F)c4C(F)(F)F)CC3)c2C1 [Compound 109, (4-(3,4-difluoro-2(trifluoromethyl)phenyl)piperidin-1-yl)(5-(2-methoxyethyl)-1,4,5,6-tetrahydropyrrolo[3,4-c]pyrazol-3-yl)methanone]	14.9 nM	41.9 nM
COC(=O)N1CCc2c(C(=O)N3CCC(c4cccc(F)c4Cl)CC3)n[nH]c2C1 [Compound 147, Methyl 3-(4-(2-chloro-3-fluorophenyl)piperidine-1-carbonyl)-4,5-dihydro-1H-pyrazolo[3,4-c]pyridine-6(7H)-carboxylate]	17.1 nM	25.5 nM
N#Cc1ccc2nnc(C(=O)N3CCC(c4c(F)cccc4C(F)(F)F)CC3)n2c1 [Compound 157, 3-(4-(2-fluoro-6-(trifluoromethyl)phenyl)piperidine-1-carbonyl)-[1,2,4]triazolo[4,3-a]pyridine-6-carbonitrile]	5.84 nM	92 nM
N#CN1CCc2[nH]nc(C(=O)N3CCC(c4cccc(F)c4C(F)(F)F)CC3)c2C1 [Compound 70, 3-(4-(3-Fluoro-2-(trifluoromethyl)phenyl)piperidine-1-carbonyl)-6,7-dihydro-1H-pyrazolo[4,3-c]pyridine-5(4H)-carbonitrile]	–	37.5 nM
O=C(c1n[nH]c2c1CN(CCC(F)(F)F)C2)N1CCC(c2ccc(F)c(F)c2C(F)(F)F)CC1 [Compound 108, (4-(3,4-difluoro-2(trifluoromethyl)phenyl)piperidin-1-yl)(5-(3,3,3-trifluoropropyl)-1,4,5,6-tetrahydropyrrolo[3,4-c]pyrazol-3-yl)methanone]	25.2 nM	49.5 nM
CCN1CCc2c(C(=O)N3CCC(c4ccc(F)c(F)c4C(F)(F)F)CC3)n[nH]c2C1 [Compound 111, (4-(3,4-Difluoro-2-(trifluoromethyl)phenyl)piperidin-1-yl)(6-ethyl-4,5,6,7-tetrahydro-1H-pyrazolo[3,4-c]pyridin-3-yl)methanone]	6.89 nM	22.1 nM
CNC(=O)N1Cc2[nH]nc(C(=O)N3CCC(c4ccc(F)c(F)c4C(F)(F)F)CC3)c2C1 [Compound 100, 3-(4-(3,4-difluoro-2-(trifluoromethyl)phenyl)piperidine-1-carbonyl)-N-methyl-4,6-dihydropyrrolo[3,4-c]pyrazole-5(1H)-carboxamide]	19.6 nM	30.3 nM
O=C(c1cccnc1)N1Cc2[nH]nc(C(=O)N3CCC(c4ccc(F)c(F)c4C(F)(F)F)CC3)c2C1 [Compound 104, (4-(3,4-difluoro-2-(trifluoromethyl)phenyl)piperidin-1-yl)(5-nicotinoyl-1,4,5,6-tetrahydropyrrolo[3,4-c]pyrazol-3-yl)methanone]	18.9 nM	21.8 nM
CCC(=O)N1Cc2[nH]nc(C(=O)N3CCC(c4ccc(F)c(F)c4C(F)(F)F)CC3)c2C1 [Compound 84, 1-(3-(4-(3,4-difluoro-2-(trifluoromethyl)phenyl)piperidine-1-carbonyl)pyrrolo[3,4-c]pyrazol-5(1H,4H,6H)-yl)propan-1-one]	16.3 nM	14.7 nM
O=C(c1n[nH]c2c1CN(CCC(F)(F)F)CC2)N1CCC(c2ccc(F)c(F)c2C(F)(F)F)CC1 [Compound 93, (4-(3,4-difluoro-2-(trifluoromethyl)phenyl)piperidin-1-yl)(5-(3,3,3-trifluoropropyl)-4,5,6,7-tetrahydro-1H-pyrazolo[4,3-c]pyridin-3-yl)methanone]	8 nM	33.6 nM
CS(=O)(=O)N1CCc2[nH]nc(C(=O)N3CCC(c4cc(F)ccc4Cl)CC3)c2C1 [Compound 144, (4-(2-chloro-5-fluorophenyl)piperidin-1-yl)(5-(methylsulfonyl)-4,5,6,7-tetrahydro-1H-pyrazolo[4,3-c]pyridin-3-yl)methanone]	6.17 nM	70.3 nM
O=C(c1n[nH]c2c1CN(C1COC1)CC2)N1CCC(c2cccc(F)c2C(F)(F)F)CC1 [Compound 74]	11.6 nM	28.3 nM
N#Cc1ccc2nnc(C(=O)N3CCC(c4cccc(F)c4Cl)CC3)n2c1 [Compound 152, 3-(4-(2-chloro-3-fluorophenyl)piperidine-1-carbonyl)-[1,2,4]triazolo[4,3-a]pyridine-6-carbonitrile]	3.1 nM	27.8 nM
COC(=O)N1Cc2[nH]nc(C(=O)N3CCC(c4ccc(F)c(F)c4C(F)(F)F)CC3)c2C1 [Compound 101, methyl 3-(4-(3,4-difluoro-2-(trifluoromethyl)phenyl)piperidine-1-carbonyl)-4,6-dihydropyrrolo[3,4-c]pyrazole-5(1H)-carboxylate]	7.44 nM	14.1 nM
N#CN1CCc2[nH]nc(C(=O)N3CCC(c4ccc(F)c(F)c4C(F)(F)F)CC3)c2C1 [Compound 95, 3-(4-(3,4-difluoro-2-(trifluoromethyl)phenyl)piperidine-1-carbonyl)-6,7-dihydro-1H-pyrazolo[4,3-c]pyridine-5(4H)-carbonitrile]	7.78 nM	27.8 nM
CCC(=O)N1CCc2c(C(=O)N3CCC(c4ccc(F)c(F)c4C(F)(F)F)CC3)n[nH]c2C1 [Compound 122, 1-(3-(4-(3,4-Difluoro-2-(trifluoromethyl)phenyl)piperidine-1-carbonyl)-1,4,5,7-tetrahydro-6H-pyrazolo[3,4-c]pyridin-6-yl)propan-1-one]	17 nM	27.7 nM
O=C(c1n[nH]c2c1CN(C1COC1)CC2)N1CCC(c2cccc(F)c2Cl)CC1 [Compound 165, (4-(2-Chloro-3-fluorophenyl)piperidin-1-yl)(5-(oxetan-3-yl)-4,5,6,7-tetrahydro-1H-pyrazolo[4,3-c]pyridin-3-yl)methanone]	15.6 nM	64.8 nM
N#CN1CCc2c(C(=O)N3CCC(c4ccc(F)c(F)c4C(F)(F)F)CC3)n[nH]c2C1 [Compound 120, 3-(4-(3,4-Difluoro-2-(trifluoromethyl)phenyl)piperidine-1-carbonyl)-1,4,5,7-tetrahydro-6H-pyrazolo[3,4-c]pyridine-6-carbonitrile]	3.45 nM	–
O=C(c1n[nH]c2c1CN(C(=O)N1CCCCC1)C2)N1CCC(c2ccc(F)c(F)c2C(F)(F)F)CC1 [Compound 128, (4-(3,4-Difluoro-2-(trifluoromethyl)phenyl)piperidin-1-yl)(5-(piperidine-1-carbonyl)-1,4,5,6 tetrahydropyrrolo[3,4-c]pyrazol-3-yl)methanone]	–	32.4 nM
N#CN1CCc2c(C(=O)N3CCC(c4cccc(F)c4C(F)(F)F)CC3)n[nH]c2C1 [Compound 78, 3-(4-(3-Fluoro-2-(trifluoromethyl)phenyl)piperidine-1-carbonyl)-4,5-dihydro-1H-pyrazolo[3,4-c]pyridine-6(7H)-carbonitrile]	9.5 nM	–
